Experimental data taken from patent US20180317487A1, “METHOD OF CONTROLLING GROWTH OF ALS-TOLERANT PLANTS” (ROTAM AGROCHEM INTERNATIONAL COMPANY LIMITED, priority 2015, published 2018).

How the values were obtained:
ALS-tolerant plants = assay: Review of the spray test data, ALS-tolerant plants together; assay type: in vivo; conditions: review of the data of Tables 5 and 6
Text: (§1) Seeds of normal wild variety and ALS-resistant variant of each of Stellaria media, Papaver rhoeas, Matricaria chamomilla and Matricaria inodora were sown in trays of peat-based compost placed in a glasshouse to allow germination. At the cotyledon stage, four evenly sized seedlings were transplanted into each of 9 cm diameter plastic pots containing loam soil mixed with 25% by volume horticultural silver sand and further blended with coarse grit in the ratio 3:1. The resulting potting medium was supplemented with Osmacote slow-release fertilizer (16:8:9+Mg) to provide 1.4 g per 0.35 L pot.
(§2) The formulations of each of Examples C1 to C11 and 1 to 16 were applied to the seedlings by spraying. Three replicate pots were used per treatment. Prior to spraying, the plants were watered overhead. To ensure the foliage was dry, water was not applied on the day of spraying, with the last overhead watering being the day before spraying. The herbicide formulations were made up with mains tap water. The laboratory track sprayer was set up with a Lurmark O1E80 Even spray nozzle to deliver 200±20 L/ha using gear 4 and a pressure of […] (30 psi). The application rates of the active ingredients are set out in Table 5 below.
(§3) Following spraying, the plants were returned to the glasshouse and the sprayed pots were arranged in three randomized blocks. The temperature of the glasshouse ranged from 12.2° C. to 16.1° C. by day and 10.9° C. to 13.3° C. at night. The relative humidity ranged from 75% to 101 %.
(§4) Throughout the experiment, the plants were watered to maintain the soil close to the field capacity. Following herbicide treatment, the plants were watered by sub-irrigation using individual plastic dishes for each pot to avoid any risk of cross contamination.
(§5) The visual percentage of control based on a 0-100 linear scale was assessed 21 days after treatment (DAT). The linear scale ranged from 0 (no effect) to 100 (dead plants).
(§6) In Table 6, ‘Obs’ indicates an observed result and ‘Exp’ indicates the result expected from applying the Colby equation, discussed above.

[1] = system: wild (non-tolerant) plants; assay: Review of the spray test data, wild plants together; assay type: in vivo; conditions: review of the data of Tables 5 and 6
Text: as §1, §2, §3, §4, §5, §6

Row | Compound | damage to / effect on ALS-tolerant plants (in words) (ALS-tolerant plants) | damage to wild (non-tolerant) plants (in words) [1]
1 | CCS(=O)(=O)c1cccnc1S(=O)(=O)NC(=O)Nc1nc(OC)cc(OC)n1 [Rimsulfuron] | little or no effect | significantly damaging
2 | COc1nc(C)nc(NC(=O)NS(=O)(=O)c2ccsc2C(=O)O)n1 [Thifensulfuron] | little or no effect | significantly damaging
3 | CSc1nnc(C(C)(C)C)c(=O)n1N [metribuzin, 4-amino-6-tert-butyl-4,5-dihydro-3-methylthio-1,2,4-triazin-5-one] | caused damage | caused damage
4 | COc1nc(C)nc(N(C)C(=O)NS(=O)(=O)c2ccccc2C(=O)O)n1 [Tribenuron] | little or no effect | significantly damaging
5 | CCS(=O)(=O)c1nc2ccccn2c1S(=O)(=O)NC(=O)Nc1nc(OC)cc(OC)n1 [Sulfosulfuron] | little or no effect | significantly damaging
6 | COc1cc(OC)nc(NC(=O)NS(=O)(=O)c2cc(CNS(C)(=O)=O)ccc2C(=O)O)n1 [Mesosulfuron] | little or no effect | significantly damaging
7 | COc1cc(OC)nc(NC(=O)NS(=O)(=O)N(C)S(C)(=O)=O)n1 [Amidosulfuron] | little or no effect | significantly damaging
8 | COc1nc(C)nc(=NC(=O)NS(=O)(=O)c2ccccc2C(=O)O)[nH]1 [Metsulfuron] | little or no effect | significantly damaging
9 | COc1cc(OC)nc(NC(=O)NS(=O)(=O)c2ncccc2C(=O)N(C)C)n1 [Nicosulfuron] | little or no effect | significantly damaging
10 | COc1nc(C)nc(NC(=O)NS(=O)(=O)c2cc(I)ccc2C(=O)O)n1 [Iodosulfuron] | little or no effect | significantly damaging
11 | COc1cc(OC)nc(NC(=O)NS(=O)(=O)c2c(C(=O)O)c(Cl)nn2C)n1 [Halosulfuron] | little or no effect | significantly damaging
